Laboratory results as given in US20040204577A1, “Novel peptide-forming enzyme gene” (Ajinomoto Co., Inc., priority 2003, published 2004).
Where a SMILES comes first, the peptide text is derived from it.

Legend:
[1] = test system: enzyme derived from Sphingobacterium sp. strain FERM BP-8124 (SP-Sepharose HP fraction enzyme); test: Enzyme substrate specificity (11), (12): peptide production; assay type: biochemical; conditions: amides and methylamine; carboxy component 100 mM, amine component 150 mM, 0.33 units enzyme, pH 9.0, 25° C., 1.5 hours
How it was run: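 Peptide and oligopeptide formation catalysed by SP-Sepharose HP-fraction enzyme from Sphingobacterium sp. FERM BP-8124; carboxy components used as hydrochloride salts, 0.1% Tween-80 final added with L-Tyr-OMe. Products quantified; "+" denotes detected but unquantified (no standard), "tr" trace.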

[2] = test system: SP-Sepharose HP fraction enzyme; test: Production of L-alanyl-L-glutamine using enzyme fraction of Sphingobacterium sp.; assay type: biochemical; conditions: 10 μl fraction (about 27 U/ml) + 90 μl buffer with 111 mM L-alanine methyl ester hydrochloride, 222 mM L-glutamine; pH 9.0, 25° C., 120 minutes
Protocol: The following procedure after centrifugation was carried out either on ice or at 4° C. Sphingobacterium sp. strain FERM BP-8124 (Depositary institution: the independent administrative corporation, National Institute of Advanced Industrial Science and Technology, International Patent Organism Depositary, Address of depositary institution: Chuo Dai-6, 1-1 Higashi 1-Chome, Tsukuba-shi, Ibaraki-ken, Japan, International deposit date: Jul. 22, 2002) was cultured in the same manner as Example 21, and the microbial cells were collected by centrifugation (10,000 rpm, 15 minutes). After washing 2 g of microbial cells with 20 mM Tris-HCl buffer (pH 7.6), they were suspended in 8 ml of the same buffer and subjected to ultrasonic crushing treatment for 45 minutes at 195 W. This ultrasonic crushed suspension was then centrifuged (10,000 rpm, 30 minutes) to remove the crushed cell fragments and obtain a supernatant. This supernatant was dialyzed overnight against 20 mM Tris-HCl buffer (pH 7.6) followed by removal of the insoluble fraction by ultracentrifugation (50,000 rpm, 30 minutes) to obtain a soluble fraction in the form of the supernatant liquid. The resulting soluble fraction was applied to a Q-Sepharose HP column (manufactured by Amersham) pre-equilibrated with Tris-HCl buffer (pH 7.6), and the active fraction was collected from the non-adsorbed fraction. […]

**Q.** With `C[C@H](N)C(=O)N[C@@H](CCC(N)=O)C(=O)O` [L-Ala-L-Gln, L-alanyl-L-glutamine] (H-Ala-Gln-OH) as the molecule, how does the “Produced peptide (Table 15-4)” value [1] read?
**A.** 0.3 mM

**Q.** What about the “L-alanyl-L-glutamine formed, enzyme-added lot” value [2] of the same molecule?
**A.** 73 mM
